Source: ChEMBL document CHEMBL3091347, “Comparison of Multiple Linear Regressions and Neural Networks based QSAR models for the design of new antitubercular compounds” (Eur J Med Chem, 2013)
Converted amounts (≈) assume the structure as drawn.

Tests used:
[1] = Lipophilicity, log P of the compound; conditions: octanol/water
[2] = system: Mycobacterium tuberculosis; test: Antitubercular activity against Mycobacterium tuberculosis BCG; assay type: functional
[3] = system: Mycobacterium tuberculosis; test: Antitubercular activity against Mycobacterium tuberculosis; assay type: functional

| Structure (SMILES) | logP ([1]; logP) | MIC [2] [µg/mL] | log(1/MIC) [2] | logP [1] | log(1/MIC) [3] | MIC ([3]; Mycobacterium tuberculosis) [µg/mL] |
| --- | --- | --- | --- | --- | --- | --- |
| NNC(=O)c1ccncn1 | -2.87 | 20 (≈ 145 µM) | -1.301 | – | – | – |
| NNC(=O)c1ccc([N+](=O)[O-])cc1 | -1.1 | 12 (≈ 66.2 µM) | -1.079 | – | – | – |
| NNC(=O)/C=C/c1ccccc1 | -1.23 | 0.4 (≈ 2.47 µM) | 0.3979 | – | – | – |
| NNC(=O)C1CCNCC1 | -3.46 | 600 (≈ 4190 µM) | -2.778 | – | – | – |
| NNC(=O)c1ccc(O)cc1 | – | 12 (≈ 78.9 µM) | -1.079 | -1.51 | – | – |
| NNC(=O)c1ccc(Br)cc1 | 0.018 | 12 (≈ 55.8 µM) | -1.079 | – | – | – |
| COc1cc(C(=O)NN)ccc1O | -1.79 | 30 (≈ 165 µM) | -1.477 | – | – | – |
| NNC(=O)c1cccc(N)c1 | -2.07 | 3 (≈ 19.8 µM) | -0.4771 | – | – | – |
| NNC(=O)c1ccncc1N | -3.12 | 1.5 (≈ 9.86 µM) | -0.1761 | – | – | – |
| NNC(=O)c1ccc(Cl)cc1 | – | 3 (≈ 17.6 µM) | -0.4771 | -0.132 | – | – |
| NNC(=O)c1ccccc1N | -2.07 | 30 (≈ 198 µM) | -1.477 | – | – | – |
| NNC(=O)Cc1ccncc1 | -2.69 | 100 (≈ 662 µM) | -2 | – | – | – |
| Cc1ccc(C)n1NC(=O)c1ccco1 | 3.04 | 15 (≈ 73.4 µM) | -1.176 | – | – | – |
| O=C(NNS(=O)(=O)c1ccc([N+](=O)[O-])cc1)c1ccncc1 | -1.54 | 60 (≈ 186 µM) | -1.778 | – | – | – |
| O=C(NNS(=O)(=O)c1ccccc1)c1ccncc1 | -1.29 | 3 (≈ 10.8 µM) | -0.4771 | – | – | – |
| COc1ccc(C(=O)NN)cc1 | – | 8 (≈ 48.1 µM) | -0.9031 | – | – | – |
| Cc1ccc(C)n1NC(=O)c1cccs1 | 1.98 | 40 (≈ 182 µM) | -1.602 | – | – | – |
| NNC(=O)c1nc2ccccc2s1 | -1.08 | 8 (≈ 41.4 µM) | -0.9031 | – | – | – |
| NNC(=O)c1ccc(N)cc1 | – | 6 (≈ 39.7 µM) | -0.7782 | -2.07 | – | – |
| Cc1c(C(=O)NN)sc(C(=O)NN)c1C | – | 30 (≈ 131 µM) | -1.477 | -2.888 | – | – |
| O=C(NNC(=O)c1ccncc1)c1ccncc1 | – | 8 (≈ 33 µM) | -0.9031 | -2.984 | – | – |
| CC(C)N(N)C(=O)c1ccco1 | 0.115 | 15 (≈ 89.2 µM) | -1.176 | – | – | – |

| Structure (SMILES) | logP ([1]; logP) | MIC [2] [µg/mL] | log(1/MIC) [2] | logP [1] | log(1/MIC) [3] | MIC ([3]; Mycobacterium tuberculosis) [µg/mL] |
| --- | --- | --- | --- | --- | --- | --- |
| CCCCC/C(C)=N\NC(=O)c1cccs1 | 1.71 | 3 (≈ 12.6 µM) | -0.4771 | – | – | – |
| O=C(NN=C1CCCCC1)c1cccs1 | 0.789 | 3 (≈ 13.5 µM) | -0.4771 | – | – | – |
| CC(C)(C#N)NNC(=O)c1cccs1 | 0.147 | 3 (≈ 14.3 µM) | -0.4771 | – | – | – |
| O=C(N/N=C/C(O)C(O)C(O)C(O)CO)c1cccs1 (configuration not stated) | – | 0.6 (≈ 1.97 µM) | 0.2218 | -4.917 | – | – |
| CNC1C(OC2C(OC3C(O)C(O)C(NC(=N)N)C(O)C3NC(=N)N)OC(C)C2(O)/C=N/NC(=O)c2cccs2)OC(CO)C(O)C1O (configuration not stated) | – | 0.25 (≈ 0.354 µM) | 0.6021 | – | – | – |
| NNC(=O)c1ccc[nH]1 | -1.99 | 60 (≈ 479 µM) | -1.778 | – | – | – |
| NNC(=O)Cc1cc2ccccc2[nH]1 | -1.61 | 60 (≈ 317 µM) | -1.778 | – | – | – |
| NNC(=O)c1nc2ccccc2[nH]1 | -1.73 | 15 (≈ 85.1 µM) | -1.176 | – | – | – |
| NNC(=O)c1nccnc1C(=O)NN | – | 15 (≈ 76.5 µM) | -1.176 | -5.666 | – | – |
| NNC(=O)c1cnc(N)s1 | -2.78 | 6 (≈ 37.9 µM) | -0.7782 | – | – | – |
| NNC(=O)c1csc(N)n1 | -2.69 | 3 (≈ 19 µM) | -0.4771 | – | – | – |
| NNC(=O)c1ccc(Br)o1 | 1.62 | 12 (≈ 58.5 µM) | -1.079 | – | – | – |
| NNC(=O)c1ccc(C(=O)NN)o1 | -1.63 | 6 (≈ 32.6 µM) | -0.7782 | – | – | – |
| NNC(=O)/C=C/c1ccco1 | -2.02 | 3 (≈ 19.7 µM) | -0.4771 | – | – | – |
| CC(C)(C#N)NNC(=O)c1ccco1 | 1.21 | 3 (≈ 15.5 µM) | -0.4771 | – | – | – |
| CC(C)=NNC(=O)c1ccco1 | 0.656 | 4 (≈ 24.1 µM) | -0.6021 | – | – | – |
| CC(=O)Nc1ccc(/C=N\NC(=O)c2ccco2)cc1 | 2.64 | 4.5 (≈ 16.6 µM) | -0.6532 | – | – | – |
| CC(=O)NNC(=O)c1ccco1 | -1.26 | – | – | – | -2.78 | 600 (≈ 3570 µM) |
| NNC(=O)c1cc2ccccc2o1 | 0.835 | 2 (≈ 11.4 µM) | -0.301 | – | – | – |
| NNC(=O)c1ccsc1 | -1.2 | 8 (≈ 56.3 µM) | -0.9031 | – | – | – |
| NNC(=O)Cc1ccsc1 | -1.57 | 100 (≈ 640 µM) | -2 | – | – | – |
